Reference: ChEMBL document CHEMBL6083285 (J Med Chem, 2024)
pIC50: −log10 of the molar value. Converted amounts (≈) assume the structure as drawn. Each block holds one compound with its values, some of them ahead of it.

Tests used:
[1] = Inhibition of NLRP3 inflammasome activation mediated pyroptosis in LPS-stimulated human THP-1 cells preincubated for 3 hrs followed by nigericin addition and measured after 1 hrs by resazurin dye based assay; format: cell-based
[2] = Inhibition of NLRP3 inflammasome activation in LPS-stimulated human whole blood assessed as reduction in IL-1beta release preincubated for 3 hrs followed by nigericin addition and measured after 1 hrs by Alphalisa method; format: tissue-based
[3] = Lipophilicity, logD of compound at pH 7.4; format: physicochemical; conditions: buffer
MDR1 [4] = assay: Permeability across apical to basolateral side in pig LLC-PK1 cells transfected with MDR1; format: ADME, cell-based, Sus scrofa; conditions: read-out: permeability
[5] = Volume of distribution at steady state in male Sprague-Dawley rat at 1 mg/kg, iv measured after 24 hrs by LC-MS analysis; format: ADME, organism-based; conditions: in vivo, read-out: Vdss
[6] = Half-life in male Sprague-Dawley rat at 1 mg/kg, iv measured after 24 hrs by LC-MS analysis; format: ADME, organism-based; conditions: in vivo
[7] = Protein binding in rat plasma assessed as unbound fraction at 5 uM incubated for 4 hrs by UPLC-MS analysis; format: ADME, cell-free
BCRP [8] = assay: Permeability in MDCK-II-BCRP cells at 5 uM incubated for 2 hrs by LC-MS/MS analysis; format: ADME, cell-based, Canis lupus familiaris; conditions: dog, read-out: permeability
[9] = AUC (0 to infinity) in male Sprague-Dawley rat at 1 mg/kg, iv measured after 24 hrs by LC-MS analysis; format: ADME, organism-based; conditions: in vivo
[10] = Clearance in male Sprague-Dawley rat at 1 mg/kg, iv measured after 24 hrs by LC-MS analysis; format: ADME, organism-based; conditions: in vivo
[11] = Protein binding in human plasma assessed as unbound fraction at 5 uM incubated for 4 hrs by UPLC-MS analysis; format: ADME, cell-free
[12] = Metabolic stability in rat hepatocytes assessed as intrinsic clearance measured per 10^6 cells at 100 uM incubated upto 60 mins by UPLC-MS/MS analysis; format: ADME, cell-based, Hepatocyte; conditions: read-out: CLH
BCRP [13] = assay: Efflux ratio of permeability in MDCK-II-BCRP cells at 5 uM incubated for 2 hrs by LC-MS/MS analysis; format: ADME, cell-based, Canis lupus familiaris; conditions: dog
MDR1 [14] = assay: Efflux ratio of permeability across apical to basolateral side in pig LLC-PK1 cells transfected with MDR1; format: ADME, cell-based, Sus scrofa
MDR1 [15] = assay: Permeability in MDCKII-MDR1 cells at 5 uM incubated for 2 hrs by LC-MS/MS analysis; format: ADME, cell-based, Canis lupus familiaris; conditions: dog, MDCK-MDR1, read-out: permeability
[16] = Kinetic solubility of compound; format: physicochemical; conditions: read-out: Kinetic_solubility
[17] = Metabolic stability in human hepatocytes assessed as intrinsic clearance measured per 10^6 cells at 100 uM incubated upto 60 mins by UPLC-MS/MS analysis; format: ADME, cell-based, Hepatocyte; conditions: read-out: CLH
[18] = Metabolic stability in pooled rat liver microsomes assessed as intrinsic clearance at 1 uM measured upto 45 mins in presence of NADPH by UPLC-MS/MS analysis; format: ADME, Microsome; conditions: read-out: CLH
[19] = Metabolic stability in mouse hepatocytes assessed as intrinsic clearance measured per 10^6 cells at 100 uM incubated upto 60 mins by UPLC-MS/MS analysis; format: ADME, cell-based, Hepatocyte; conditions: read-out: CLH
[20] = Metabolic stability in pooled mouse liver microsomes assessed as intrinsic clearance at 1 uM measured upto 45 mins in presence of NADPH by UPLC-MS/MS analysis; format: ADME, Microsome; conditions: read-out: CLH
[21] = Protein binding in mouse plasma assessed as unbound fraction at 5 uM incubated for 4 hrs by UPLC-MS analysis; format: ADME, cell-free
MDR1 [22] = assay: Efflux ratio of permeability in MDCKII-MDR1 cells at 5 uM incubated for 2 hrs by LC-MS/MS analysis; format: ADME, cell-based, Canis lupus familiaris; conditions: dog, MDCK-MDR1
Homo sapiens = organism: Homo sapiens; assay: Selectivity ratio of IC50 for inhibition of NLRP3 inflammasome activation in LPS-stimulated human whole blood assessed as reduction in IL-1beta release to IC50 for inhibition of NLRP3 inflammasome activation mediated pyroptosis in LPS-stimulated human THP-1 cells

Compound: O=C1Nc2c(ccc3c2CCC3)-c2ccnc(c2)OCCCCCn2ccc(n2)S(=O)(=O)N1
- pIC50 [1]: 6.54
- pIC50 [2]: 5.96

Compound: COc1cc(-c2ccc3c(c2NC(=O)NS(C)(=O)=O)CCC3)ccn1
- pIC50 [1]: 5.99

Compound: CC(C)c1cccc2c1CC(=O)NS(=O)(=O)c1cnn(n1)C(C)(C)COc1cc-2ccn1
- pIC50 [1]: 5.78

Compound: COc1cc(-c2ccc3c(c2NC(=O)NS(=O)(=O)c2cn(C(C)C)cn2)CCC3)ccn1
- pIC50 [1]: 7.21
- pIC50 [2]: 6.21

Compound: O=C1Nc2c(ccc3c2CCC3)-c2ccnc(c2)OCCCn2ccc(n2)S(=O)(=O)N1
- pIC50 [1]: 6.24
- pIC50 [2]: 6.01

Compound: COc1cc(-c2cc(F)cc(C(C)C)c2CC(=O)NS(=O)(=O)c2cnn(C3CC3)c2)ccn1
- Papp A→B (MDR1 [4]): 0.17 ×10⁻⁶ cm/s
- Vd [5]: 13.3 L/kg
- pIC50 [1]: 6.27
- half-life [6]: 16.4 h
- fraction unbound at 4 h, 5 µM [7]: 0.019
- Papp at 2 h, 5 µM (BCRP [8]): 5.3 ×10⁻⁶ cm/s
- AUC(0-inf) [9]: 1510 ng·h/mL
- clearance [10]: 11 mL/min/kg
- fraction unbound at 4 h, 5 µM [11]: 0.01
- hepatocyte CLint at 100 µM [12]: < 8 µL/min/1e6 cells
- efflux ratio at 2 h, 5 µM (BCRP [13]): 38
- efflux ratio (MDR1 [14]): 3.6
- logD [3]: 0.9
- Papp at 2 h, 5 µM (MDR1 [15]): 8.8 ×10⁻⁶ cm/s
- hepatocyte CLint at 100 µM [17]: < 8 µL/min/1e6 cells
- microsomal CLint at 1 µM [18]: < 15.4 µL/min/mg
- fraction unbound at 4 h, 5 µM [21]: 0.017
- efflux ratio at 2 h, 5 µM (MDR1 [22]): 21

Compound: COc1cc(-c2ccc3c(c2NC(=O)NS(=O)(=O)c2cnn(C(C)C)n2)CCC3)ccn1
- pIC50 [1]: 7.24
- pIC50 [2]: 6.09

Compound: CC(C)c1cccc2c1CC(=O)NS(=O)(=O)c1cccc(c1)C(C)(C)COc1cc-2ccn1
- pIC50 [1]: 5.83

Compound: CC(C)c1cccc2c1CC(=O)NS(=O)(=O)c1nn(cc1F)C(C)(C)COc1cc-2ccn1
- pIC50 [1]: 6.32

Compound: CC(C)n1ccc(S(=O)(=O)NC(=O)Nc2c(-c3ccnc(OC4CCOCC4)c3)ccc3c2CCC3)n1
- pIC50 [1]: 7.21
- pIC50 [2]: 6.00
- Ratio IC50 (Homo sapiens): 16
- logD [3]: 0.35

More lines, in order of rising pIC50 [2], values ahead:

- pIC50 [2]: 6.30
Compound: CC(C)c1cccc2c1CC(=O)NS(=O)(=O)c1cnn(c1)C1(CCCC1)COc1cc-2ccn1
- pIC50 [1]: 6.98

- pIC50 [2]: 6.35
Compound: CC(C)c1cc(F)cc2c1CC(=O)NS(=O)(=O)c1cn(nc1F)C(C)(C)COc1cc-2ccn1
- pIC50 [1]: 7.70

- pIC50 [2]: 6.36
- logD [3]: -0.02
Compound: CC(C)n1ccc(S(=O)(=O)NC(=O)Nc2c(-c3ccnc(OC4CCN(C)CC4)c3)ccc3c2CCC3)n1
- pIC50 [1]: 7.34

- pIC50 [2]: 6.38
Compound: CC(C)c1cccc2c1CC(=O)NS(=O)(=O)c1cnn(c1)C1(CC1)COc1cc-2ccn1
- pIC50 [1]: 6.25

- pIC50 [2]: 6.38
Compound: CC(C)c1cccc2c1CC(=O)NS(=O)(=O)c1cnn(c1)C(C)(C)COc1cc-2ccn1
- pIC50 [1]: 6.78

- Papp A→B (MDR1 [4]): 0.39 ×10⁻⁶ cm/s
- Vd [5]: 0.4 L/kg
- half-life [6]: 1.5 h
- fraction unbound at 4 h, 5 µM [7]: 0.036
- pIC50 [2]: 6.45
- Papp at 2 h, 5 µM (BCRP [8]): 10.9 ×10⁻⁶ cm/s
- AUC(0-inf) [9]: 4900 ng·h/mL
- clearance [10]: 3.5 mL/min/kg
- fraction unbound at 4 h, 5 µM [11]: 0.047
- hepatocyte CLint at 100 µM [12]: < 8 µL/min/1e6 cells
- efflux ratio at 2 h, 5 µM (BCRP [13]): 6
- efflux ratio (MDR1 [14]): 2.9
- logD [3]: 1.5
- Papp at 2 h, 5 µM (MDR1 [15]): 10.4 ×10⁻⁶ cm/s
- solubility kinetic [16]: 16.5 µg/mL (≈ 34.9 µM)
- hepatocyte CLint at 100 µM [17]: < 8 µL/min/1e6 cells
- microsomal CLint at 1 µM [18]: < 15.4 µL/min/mg
- hepatocyte CLint at 100 µM [19]: 21 µL/min/1e6 cells
- microsomal CLint at 1 µM [20]: 35 µL/min/mg
- fraction unbound at 4 h, 5 µM [21]: 0.086
- efflux ratio at 2 h, 5 µM (MDR1 [22]): 18
Compound: CC(C)c1cc(F)cc2c1CC(=O)NS(=O)(=O)c1cnn(c1)C(C)(C)COc1cc-2ccn1
- pIC50 [1]: 7.12

- pIC50 [2]: 6.49
Compound: CC(C)c1cc(F)cc2c1CC(=O)NS(=O)(=O)c1cnn(c1)C1(COC1)COc1cc-2ccn1
- pIC50 [1]: 7.08

- pIC50 [2]: 6.77
Compound: CC1(C)COc2cc(ccn2)-c2ccc3c(c2NC(=O)NS(=O)(=O)c2nn1cc2F)CCC3
- pIC50 [1]: 7.77

- pIC50 [2]: 6.90
Compound: CC1(C)COc2cc(ccn2)-c2c(F)cc3c(c2NC(=O)NS(=O)(=O)c2nn1cc2F)CCC3
- pIC50 [1]: 8.10
